Results taken from publication PMC10055926.
“And” between values parts separate entries of the source, which are not always exact repeats. Equal values may be shown once. “Also recorded” adds a separate entry of the source. Where a name gives a salt, the structure may show the parent alone. Read-outs that look alike come from different tables or passages of the source.

Tests used:
[1] = system: SARS-CoV-2; assay: Immunofluorescence (HCI, spike stain) antiviral assay, SARS-CoV-2 in A549-hACE2; format: cell-based; conditions: read-out: EC50 against SARS-CoV-2 in A549-hACE2
[2] = system: SARS-CoV-2; assay: Immunofluorescence (HCI, dsRNA stain) antiviral assay, SARS-CoV-2 in HeLa-hACE2; format: cell-based; conditions: read-out: EC50 against SARS-CoV-2 in HeLa-hACE2
[3] = system: SARS-CoV-1; assay: microbe, parasite or virus in culture; format: cell-based; conditions: 24 h, read-out: EC50 against SARS-CoV-1 in A549-hACE2
[4] = system: HCoV-229E; assay: microbe, parasite or virus in culture; format: cell-based, human coronavirus 229E; conditions: HCI (dsRNA stain), 24 h at 35 °C, read-out: EC50 against HCoV-229E in HeLa-hACE2
[5] = system: SARS-CoV-2 pseudovirus (SARS2pp); assay: microbe, parasite or virus in culture; format: cell-based; conditions: luciferase, 24 h, read-out: EC50, neutralization of SARS2pp entry in VeroE6
[6] = system: SARS-CoV-2 pseudovirus (SARS2pp); assay: microbe, parasite or virus in culture; format: cell-based
[7] = system: VeroE6-eGFP cells
[8] = system: VeroE6 cells
[9] = system: A549-hACE2 cells; assay: Cytotoxicity in uninfected A549-hACE2 cells (ATPlite); conditions: for CC50: read-out: CC50 in A549-hACE2, Toxicity (ATPlite), uninfected cells
[10] = system: SARS-CoV-2; assay: SARS-CoV-2 antiviral assay in VeroE6-eGFP cells (CPE reduction, GFP); conditions: for EC50: MOI 0.001, 96 h
[11] = system: HeLa-hACE2 cells; assay: Immunofluorescence-based antiviral assay with LysoTracker dye in HeLa-hACE2; conditions: for LysoTracker signal intensity (in words): HeLa-hACE2, acidic organelle accumulation
[12] = system: SARS-CoV-2; assay: microbe, parasite or virus in culture; format: cell-based, SARS-CoV-2 (Lineage A, B.1); conditions: for antiviral activity in HNEC ALI cultures (in words): viral RNA copies in apical washes over three days; for EC50: vRNA (qPCR), read-out: EC50 against SARS-CoV-2 in HNECs
[13] = system: SARS-CoV-2; assay: Time-of-addition (TOA) assay in HeLa-hACE2, dsRNA staining; format: cell-based; conditions: HeLa-hACE2, MOI 4, 2.5-5 µM compound, dsRNA readout at 8 hpi
[14] = target: T1, cathepsin L (Homo sapiens, UniProt P07711); assay: Enzymatic cathepsin L inhibition assay (Eurofins); format: biochemical
T1 construct: purchased Eurofins (contract assay)

[15] = in vitro; conditions: African green monkey
[16] = in vitro; conditions: African green monkey; remark: listed apart in the source
[17] = Cytotoxicity in uninfected A549-hACE2 cells (ATPlite); conditions: human, A549-hACE2 cells
[18] = system: SARS-CoV-2; assay: SARS-CoV-2 viral RNA copy determination in A549-hACE2 cells (RT-qPCR on supernatant); format: cell-based; conditions: for reduction of SARS-CoV-2 RNA in the supernatant: A549-hACE2, RT-qPCR at 48 hpi; for EC50: read-out: EC50, viral RNA reduction in supernatant
[19] = system: SARS-CoV-2; assay: Antiviral assessment in Caco-2 cells by visual CPE scoring; format: cell-based; conditions: read-out: EC50 against SARS-CoV-2 in Caco-2
[20] = in vitro; conditions: human, Caco-2
[21] = system: SARS-CoV-2
[22] = read-out: EC50 against SARS-CoV-2 in VeroE6-eGFP, CPE reduction (GFP)
[23] = Severe acute respiratory syndrome-related coronavirus, Vero C1008
[24] = Severe acute respiratory syndrome-related coronavirus, VeroE6/TMPRSS2, SARS2pp, mean ± SD, unit inferred, [µM] only in axis labels, read-out: VeroE6 TMPRSS2: EC50 (Figure 6)
[25] = Severe acute respiratory syndrome coronavirus 2, 24 h
[26] = A549-hACE2, SARS-CoV-2 MOI 0.1, RT-qPCR at 48 hpi
[27] = Severe acute respiratory syndrome coronavirus 2, A549-hACE2, SARS-CoV-2 MOI 0.1, RT-qPCR at 48 hpi
[28] = Severe acute respiratory syndrome coronavirus
[29] = Severe acute respiratory syndrome coronavirus 2, 96 h, read-out: EC50 against SARS-CoV-2 in VeroE6-eGFP, CPE reduction (GFP)

T1 sequence (P07711 114-333): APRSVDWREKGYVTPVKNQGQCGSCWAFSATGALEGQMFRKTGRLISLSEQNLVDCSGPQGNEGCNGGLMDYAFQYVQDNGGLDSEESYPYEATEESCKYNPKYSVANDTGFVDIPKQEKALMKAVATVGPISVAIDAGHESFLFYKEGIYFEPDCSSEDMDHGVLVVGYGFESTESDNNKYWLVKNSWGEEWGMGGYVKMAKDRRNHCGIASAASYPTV

Work on `CN1CCN(C(=O)N[C@@H](Cc2ccccc2)C(=O)N[C@H](/C=C/S(=O)(=O)c2ccccc2)CCc2ccccc2)CC1` [K777] yielded an EC50 ([1]; 24 h) of 4 ± 0.2 nM, an EC50 ([2]; 24 h) of 0.6 ± 0.05 nM and an EC50 ([3]; HCI (spike stain), MOI 0.1) of 3 ± 0.5 nM. For the same compound, the EC50 [4] was 2 ± 0.4 nM, the EC50 [5] was 23 nM and the EC50 ([6]; luciferase, 24 h, read-out: EC50, neutralization of SARS2pp entry in VeroE6 TMPRSS2) was 18.6 µM. The CC50 [7] was roughly 50000 nM, the CC50 [8] was greater than 30000 nM and the CC50 [9] was greater than 50 nM. For the same compound, the EC50 [10, 22] was 540 ± 140 nM and the “concentration at which the LysoTracker signal is significantly increased” value ([11]; HeLa-hACE2, adjusted p-value < 0.05 vs virus control) was no less than 2.2 µM.

In the case of `CC(C)(C)[C@H](NC(=O)C(F)(F)F)C(=O)N1C[C@H]2[C@@H]([C@H]1C(=O)N[C@H](C#N)C[C@@H]1CCNC1=O)C2(C)C` [PF-07321332, nirmatrelvir], the “antiviral activity in HNEC ALI cultures (in words)” value ([12]; compound at 2.5 µM) is reported as “did”, the EC50 [12] is reported as 180 ± 140 nM and the “time of addition until which inhibition of dsRNA formation was sustained” value [13] is reported as ~ 4 hpi.

With `CC(=O)N[C@@H](CC(C)C)C(=O)N[C@@H](CC(C)C)C(=O)N[C@H](C=O)CCCNC(=N)N` [leupeptin] the “cathepsin L activity (in words)” value ([14]; positive control) was “blocked cathepsin L activity”.

`CN(C)C(=O)COC(=O)Cc1ccc(OC(=O)c2ccc(NC(=N)N)cc2)cc1` [Camostat mesylate, camostat mesylate] gave an EC50 [5, 23] greater than 30000 nM, an EC50 [6, 24] of 18 ± 5.52 µM and an EC50 ([6]; Severe acute respiratory syndrome-related coronavirus, VeroE6/TMPRSS2, luciferase, 24 h, read-out: EC50, neutralization of SARS2pp entry in VeroE6 TMPRSS2) of roughly 18 µM. The CC50 [15] was greater than 30000 nM.

`CC(C)C(=O)OC[C@H]1O[C@@H](n2ccc(NO)nc2=O)[C@H](O)[C@@H]1O` [Molnu-Piravir, molnupiravir] showed an EC50 [2, 25] of 1010 ± 110 nM, an EC50 ([4]; Human coronavirus 229E, 24 h) of 1320 ± 180 nM and a CC50 [16] greater than 100000 nM. It also gave a CC50 [17] greater than 50000 nM.

For `C[C@H](NC(=O)[C@H](Cc1ccc(O)cc1)NC(=O)OCc1ccccc1)C(=O)C=[N+]=[N-]`, the “reduction of SARS-CoV-2 RNA in the supernatant” value (from here on “reduction of SARS-CoV-2 RNA”) [18] was ~ 4 log and 4 log, the EC50 [18, 26] was 321 nM and the EC50 [18, 27] was 320 nM. The EC50 ([1]; 24 h) was 50 ± 3 nM, the EC50 [1, 25] was 46 nM and the EC50 ([2]; 24 h) was 10 ± 1 nM. The EC50 [2, 25] was 6 nM, the EC50 [3, 28] was 50 ± 16 nM and the EC50 [4] was 70 ± 10 nM. For the same compound, the EC50 ([4]; Human coronavirus 229E, 24 h) was 69 nM, the EC50 ([19]; Severe acute respiratory syndrome coronavirus 2, Caco-2, CPE reduction (manual scoring), MOI 0.01, 48 h) was greater than 50000 nM and the EC50 ([12]; Severe acute respiratory syndrome coronavirus 2) was greater than 20000 nM. For the same compound, the “antiviral activity in HNEC ALI cultures (in words)” value ([12]; compound at 20 µM) was “does not inhibit SARS-CoV-2 infection; also recorded: did not show antiviral activity”, the “antiviral activity in differentiated HNECs (in words)” value ([12]; concentration not given) was “did not show antiviral activity” and the “time of addition from which antiviral activity was lost” value [13] was no less than 2 h post virus infection. The EC50 [5, 23] was 130 nM, the “activity against SARS2pp in VeroE6 TMPRSS2 (in words)” value [6] was “not active at all” and the EC50 [6, 24] was greater than 30 µM. It also gave an EC50 ([14]; enzymatic assay, substrate Z-Phe-Arg AMC, one experiment) of less than 50 nM, a CC50 [20] greater than 50000 nM and a CC50 [17] greater than 25000 nM. The “cytotoxicity (in words)” value ([9]; uninfected A549-hACE2, ATPlite) was “did not show cytotoxicity”, the “selectivity index (SI), VeroE6-eGFP SARS-CoV-2” value ([10]; CC50/EC50 in VeroE6-eGFP) was greater than 15 and the EC50 [10, 29] was 1330 ± 490 nM. The “LysoTracker signal intensity (in words)” value [11] was “did not significantly increase the intensity of the LysoTracker signal”.

For `CCC(CC)COC(=O)[C@H](C)N[P@](=O)(OC[C@H]1O[C@@](C#N)(c2ccc3c(N)ncnn23)[C@H](O)[C@@H]1O)Oc1ccccc1` [Remdesivir, remdesivir], the “reduction of SARS-CoV-2 RNA” value [18] was ~ 4.5 log, the EC50 [18, 26] was 411 nM and the EC50 [18, 27] was 410 nM. For the same compound, the EC50 [1, 25] was 180 ± 10 nM, the EC50 [2, 25] was 110 ± 10 nM and the EC50 [3, 28] was 330 ± 20 nM. The EC50 ([4]; Human coronavirus 229E, 24 h) was 110 ± 9 nM, the EC50 ([19]; Severe acute respiratory syndrome coronavirus 2, Caco-2, 48 h) was 770 ± 260 nM and the “time of addition until which inhibition of dsRNA formation was sustained” value [13] was ~ 4 hpi. For the same compound, the EC50 [21] was 1420 ± 150 nM, the CC50 [16] was greater than 100000 nM and the CC50 [17] was greater than 25000 nM. The EC50 [10, 29] was 1340 nM and the “LysoTracker signal intensity (in words)” value [11] was “neither one of the compounds increased the intensity of the LysoTracker signal”.

For `COc1cccc2[nH]c(C(=O)N[C@@H](CC(C)C)C(=O)N[C@@H](C[C@@H]3CCNC3=O)C(=O)CO)cc12` [PF-00835231], the “reduction of SARS-CoV-2 RNA” value [18] was ~ 4.8 log, the EC50 [18, 26] was 530 nM and 532 nM and the EC50 ([1]; 24 h) was 180 ± 8 nM. The EC50 ([2]; 24 h) was 160 ± 20 nM, the EC50 ([3]; HCI (spike stain), MOI 0.1) was 550 ± 40 nM and the EC50 [4] was 470 ± 40 nM. For the same compound, the “time of addition until which inhibition of dsRNA formation was sustained” value [13] was ~ 4 hpi, the CC50 [7] was greater than 20000 nM and the CC50 [9] was greater than 12500 nM. The EC50 [10, 22] was greater than 50000 nM and the “LysoTracker signal intensity (in words)” value [11] was “neither one of the compounds increased the intensity of the LysoTracker signal”.
